Values after ≈ are worked out from the molar mass of the structure shown.
Legend:
H. influenzae ATCC 49766 = system: H. influenzae ATCC 49766; design: method as in earlier work; settings: QC range for H. influenzae ATCC 49766, ref CLSI; cited from earlier work
P. aeruginosa DNA gyrase = target: T1, P. aeruginosa DNA gyrase (Pseudomonas aeruginosa, UniProt Q9I7C2); assay: supercoiling HTS assay; format: biochemical
T1 construct: purchased Inspiralis
Protocol: The assay to determine IC50 values was performed using assay kits from Inspiralis in accordance with previously described procedures.[43] Seven concentrations of the inhibitors were used to determine IC50 values which were then calculated with GraphPad Prism 6.0 software. Three independent measurements were performed to determine IC50 values, and mean values are reported as the final result.

HepG2 cell line = assay: MTS cytotoxicity assay; format: cell-based, human
Protocol: (§1) Briefly, Eagle’s minimum essential medium (Gibco, Thermo Fisher Scientific, Waltham, MA, USA) was used to culture the cells. The following supplements were added to the medium: L-glutamine (2 mM; Sigma-Aldrich, St. Louis, MO, USA), penicillin (100 U/mL; Sigma-Aldrich, St. Louis, MO, USA), streptomycin (100 μg/mL; Sigma-Aldrich, St. Louis, MO, USA), and fetal bovine serum (10%; Gibco, Thermo Fisher Scientific, Waltham, MA, USA). The cells were maintained at 37 °C in a humidified 5% CO2 atmosphere. The cells were plated in 96-well plates at a density of 2000 cells per well and incubated for 24 h. Then, the cells were treated with selected compounds, positive control (50 μM etoposide), or vehicle control (0.5% DMSO) and incubated for 72 h. The CellTiter96 Aqueous One Solution Reagent (10 μL; Promega, Madison, WI, USA) was then added to each well, and the plate was incubated for another 3 h. Absorbance at 490 nm was measured with a BioTek Synergy 4 Hybrid Microplate Reader (Winooski, VT, USA). Independent experiments were repeated three times, each performed in triplicate. Statistical significance (p < 0.05) was calculated with two-tailed Student’s t test between treated groups and DMSO. IC50 values (concentration of the compound that gives a half-maximal response) are given as average values from the independent measurements and were determined using GraphPad Prism 5.0 software (San Diego, CA, USA)

MCF-7 cell line = assay: MTS cytotoxicity assay; format: cell-based, human
Protocol: as §1

hERG channel = target: T2, hERG channel (Homo sapiens, UniProt Q12809); assay: whole-cell patch-clamp on HEK293 cells; format: cell-based; settings: 50 µM 7a, mean ± SD
T2 construct: expressed in transfected cells; host or cells: HEK293 cells stably expressing the channel
From the text: hERG inhibition was additionally determined in whole-cell patch-clamp experiments on HEK293 cells stably expressing the channel, as previously described.[55]

[1] = in vivo pharmacokinetics, IV; design: species or system male CD-1 mice
Protocol: The in vivo pharmacokinetic studies of 7a were performed by Selvita d.o.o. (Zagreb, Croatia) in male CD-1 mice (Charles River). The test compound was administered via intravenous (iv) bolus at a dose of 1 mg/kg (dose volume 5 mL/kg). Blood samples were collected from the tail vein 0.05, 0.25, 0.5, 1.0, 2.0, 4.0, 8.0, and 24 h after administration from three animals per time point. Each animal was sampled 2–4 times throughout the time course of collection (six animals were used totally per each route). Blood samples were centrifuged at 1560g for 10 min at 4 °C. The samples were analyzed by LC–MS/MS. Prior to analysis, the samples were prepared by protein precipitation {20 μL of plasma + 20 μL of water + 240 μL of extraction solvent [acetonitrile/methanol (2:1 v/v) with 100 ng/mL diclofenac (IS)]}, and the extracts were diluted with water (1:3 v/v).
For LC–MS/MS analysis, a Shimadzu prominence HPLC system was used (HPLC pump: LC30AD, autosampler: SIL30ACMP, column oven: CTO30A) connected to an Applied Biosystems mass spectrometer (QTRAP 5500) operating in the positive TurboIonSpray mode. For separation, a Waters Acquity UPLC BEH C18 1.7 μm, 2.1 × 50 mm (Waters, Milford, MA) column was used, with an injection volume of 1 or 2 μL and a flow rate of 0.5 mL/min. The mobile phase consisted of 0.1% formic acid in water (solvent A) and 0.1% formic acid in acetonitrile (solvent B). Gradient: 0–0.05 min, 5% B; 0.05–0.80 min, 5–85% B; 0.80–1.00, 85% B; 1.00–1.01, 85–95% B; 1.01–1.50, 95% B; 1.50–1.51, 95–5% B, 1.51–2.00, 5% B.
Pharmacokinetic analysis was performed using WinNonlin Phoenix software (Certara, version 8.3) from the mean animal plasma concentration per group, per time point, non-compartmental analysis, and the target dose.

[2] = formulation solubility study; format: physicochemical
Protocol: For the actual in vivo assay, a […] pH was used, and the compound was prepared in a formulation of 100 mM carbonate buffer at pH 8.4 with 20% hydroxypropyl β-cyclodextrin.
Solubility analysis was performed on an Acquity UPLC instrument (Waters, Milford, MA, USA). A Waters BEH C18 column (2.1 × 50 mm, 1.7 μm; Waters) was used at T = 40 °C, with the flow rate of 0.5 mL/min; PDA UV detection at λ = 256 nm; mobile phase A: 0.1% formic acid in ultrapure water; mobile phase B: 0.1% formic acid in acetonitrile. Gradient: 0–4 min, 5–100% B; 4–5 min, 100% B; 5–5.1 min, 100–5% B; 5.1–7 min, 5% B.

S. aureus topo IV = S. aureus topo IV (Staphylococcus aureus, UniProt P0C1S7)
[3] = male, CD-1, mouse, plasma, IV 1 mg/kg

| SMILES | MIC, CLSI Range (H. influenzae ATCC 49766) | IC50 (P. aeruginosa DNA gyrase) | cytotoxic concentration (no cytotoxicity up to) (HepG2 cell line; with serum, 72 h) | cytotoxic concentration (no cytotoxicity up to) (HepG2 cell line; without fetal bovine serum) | cytotoxic concentration (no cytotoxicity up to) (MCF-7 cell line; with serum, 72 h) | cytotoxic concentration (no cytotoxicity up to) (MCF-7 cell line; without fetal bovine serum) | hERG inhibition (current reduction) (hERG channel) | plasma clearance as % of liver blood flow ([1]; assuming 90 mL/min/kg) | AUC(0-inf) at 24 h [1, 3] | C0 at 24 h [1, 3] | clearance at 24 h [1, 3] | half-life at 24 h [1, 3] | AUC(0-t) at 24 h ([1]; male, CD-1, mouse, plasma, IV 1 mg/kg, read-out: AUC0–24h) | Vd at 24 h ([1]; male, CD-1, mouse, plasma, IV 1 mg/kg, read-out: Vss) | solubility ([2]; 100 mM carbonate buffer with 20% CD, pH 8.0, 20% CD) | solubility ([2]; 100 mM carbonate buffer, pH 9.0, 20% hydroxypropyl β-cyclodextrin) | IC50 (S. aureus topo IV) |
| --- | --- | --- | --- | --- | --- | --- | --- | --- | --- | --- | --- | --- | --- | --- | --- | --- | --- |
| C[C@@H](O)[C@H]1C(=O)N2C(C(=O)O)=C(SCCNC=N)C[C@H]12 [Imipenem, imipenem] | 0,25 - 1 µg/mL | – | – | – | – | – | – | – | – | – | – | – | – | – | – | – | – |
| Cc1[nH]c(C(=O)Nc2nc3c(N4CCOCC4)cc(C(=O)O)cc3s2)c(Cl)c1Cl [7a, 2-(3,4-Dichloro-5-methyl-1H-pyrrole-2-carboxamido)-4-morpholinobenzo[d]thiazole-6-carboxylic Acid] | – | < 10 nM | > 100 µM | > 100 µM | > 100 µM | > 100 µM | 0 ± 12% | 61% | 304 ng·h/mL | 913 ng/mL | 54.8 mL/min/kg | 1 h | 303 ng·h/mL | 2.3 L/kg | 3800 µg/mL (≈ 8.35 mM) | 13200 µg/mL (≈ 29 mM) | 8 ± 1.2 nM |

— paper PMC10041525, “New Dual Inhibitors of Bacterial Topoisomerases with Broad-Spectrum Antibacterial Activity and In Vivo Efficacy against Vancomycin-Intermediate Staphylococcus aureus” (Journal of Medicinal Chemistry, 2023)
